From patent publication US6528685B2 (Teva Pharmaceutical Industries, Ltd., priority 1994, dated 2003)
“And” between values parts separate entries of the source, which are not always exact repeats. Identical values can stand only once. Counter-ions that a name gives are not always drawn. Like-named read-outs stand apart in the source and are kept apart here.

What was measured:
mice [1] = experiment: Neurotoxicity in mice, rotorod ataxia test; details: mice i.p., rotorod ataxia test
Description: (§1) Neurotoxicity of the claimed agents was also assessed in mice (i.p. administration) by the rotorod ataxia test and/or in rats (p.o. administration) by positional sense test and gait stance test. […] The term quantitating the neurotoxicity is the medial neurological toxic dose (TD50), was determined in the above tests.

rats [2] = experiment: Maximal electroshock (MES) model, rats; details: rats, oral (p.o.) administration; median effective dose
mice [3] = experiment: Maximal electroshock (MES) model, mice; details: mice; for MICE MES ED50: intraperitoneal (i.p.) administration
rats [4] = experiment: Neurotoxicity in rats, positional sense test and gait stance test; details: rats p.o.; positional sense test and gait stance test
Description: as §1

mice [5] = details: mice i.p.
male ICR albino mice = experiment: Hypobaric hypoxic model in mice, survival time; type: in vivo, mouse
Description: Desiccator B was disconnected and allowed to equilibrate with room air whilst desiccator A was evacuated to a pressure of 100 mmHg. […] The survival time from the moment of induction of hypoxia to the time of cessation of respiration was recorded for each mouse for a maximum of 15 minutes after which time room air was reintroduced to desiccator B. Survivors were monitored for signs of lethargy or vitality.
Effect of drug treatment was assessed as the percent of the survival time of the drug treated group with respect to the saline injected or vehicle injected control group. Control groups were run twice, before and after each experimental group and consisted of 12-16 mice in groups of 4 mice. Each experimental group always consisted of 4 mice to ensure a constant residual volume of oxygen in all tests. The effect of each dose of test drug was determined in duplicate i.e. two groups of 4 mice.
All drugs were administered intra-peritoneally at the dose indicated one hour prior to exposure to hypoxia.

mongolian gerbils = experiment: Global brain ischemia in gerbils; type: in vivo, mongolian gerbil; details: 3 injections, fraction of hippocampi protected from ischemia, 14 days post-ischemia
Description: Male mongolian gerbils, aged 2.5-5 months, housed 4-8 in a cage, were supplied freely with food and water and maintained at 24° C. with a 12 hour day/night cycle. […] Each artery was clamped for 5 minutes with aneurysm clips to produce global brain ischemia. The anesthesia was discontinued upon clamping. After 5 minutes the clamps were removed and the wound closed with skin clips.
For treatment, the test compound or vehicle were injected intra-peritoneally (ip) in a volume of 50 microliters of solvent per 10 g body weight. The first injection was given two minutes after clamp removal, and thereafter daily for the next 2 post-operative days (total of 3 injections).
Seven groups each of 4-8 animals were compared:
V. Ischemia—Test compound treated, one sub-group per concentration tested,
VI. Ischemia and pentobarbital (40 mg/kg) as positive control).
Analysis of neuronal damage was performed 14 days post-ischemia by counting pyramidal neurons throughout the CA1 layer of the anterior hippocampus in […] thick (paraffin) coronal brain sections stained with hematoxylin and erosin.
Percent Protection values represent the fraction of hippocampi protected from ischemia in a group of animals treated with the stated dose of compound.

rats [6] = details: rats p.o.
[7] = tested on: Mechanically dissociated Neonatal Rat Cerebellum; experiment: Reversal of NMDA induced cell death, neonatal rat cerebellum cultures; type: cell-based; details: for SURVIVING CELL IN CULTURE: relative to control (100%); for PERCENT PROTECTION: cell survival minus NMDA effect (30%); for EFFECTIVE PROTECTION: percent protection x 100/70
Description: The cerebellum was aseptically dissociated from 6 or 7-day old rat pups and placed in a 15 ml sterile plastic conical tube containing 3 ml of Dulbecco's modified Eagle's medium (DMEM) with a high glucose concentration ([…]) and 2 mM (v/v) L-glutamine and an antibiotic antimitotic mixture. The cerebella were then dissociated after 20-25 passages through a sterile 13 gauge, 10 cm long stainless steel needle attached to a 5 ml syringe with an inserted 45 micrometer pore nylon sieve. The dissociated cells were centrifuged at 200 g for 5 minutes. The supernatant was discarded and the cells resuspended in medium enriched with 15% (v/v) heat inactivated fetal calf serum. Cell viability was determined by the tryptan blue exclusion test.
Cells were plated at a density of 200/mm^2 on poly-L-lysine coated surfaces. Poly-L-lysine coated glass coverslips were prepared at least one hour in advance of plating by immersing sterile coverslips in sterile distilled water solution containing 15 microgram/ml poly-L-lysine, and washing in sterile water just prior to use. The plated cells were covered with enriched medium and incubated at 37° C. in an atmosphere of 5% CO2 in air and 97% humidity. After three days in culture, the media was replaced with media containing the desired test compound. Each test compound was tested in duplicate. Toxic-dose response was determined for each compound.
Four groups were run in each set of experiments;
I. Control, consisting of enriched media alone,
II. N-methyl-D-aspartate (NMDA, 1 mM for 3 hours) as the cytotoxic challenge,
III. Test compound plus NMDA, and
IV. Positive control, spermine(0.01 micromoles) plus NMDA.
Nerve cell survival was evaluated by phase contrast microscopy and tryptan blue staining after 24 hours.
Surviving cells in culture are measured relative to control (100%) as described above. Percent protection is the Cell Survival for the test compound minus the NMDA effect. Thus, maximal protection is 100% minus 30% NMDA effect i.e. 70%. The Effective Protection was calculated as the percent of the Percent Protection (X) divided by the maximal protection value (e.g. X×100/70).

| SMILES | MICE TD50 (mice [1]) | RATS MES 50 (rats [2]) | MICE MES ED50 (mice [3]) | RATS TD50 (rats [4]) | MICE scMet ED50 PI (mice [5]) | PERCENT PROTECTION (mongolian gerbils; 1.0 mg/kg ip) | other results |
| --- | --- | --- | --- | --- | --- | --- | --- |
| NC(=O)CNC1CCc2ccccc21 (racemic) [Compound 3, (rac)-N-(2-Acetamido)-1-aminoindan.HCl] | >100 mg/kg and 126 mg/kg | <50 mg/kg | <100 mg/kg | >50 mg/kg | 36 mg/kg | – | MICE TD50 (mice [1]; listed as 3*): 127 mg/kg; MICE MES ED50 (mice [3]; listed as 3*): 83 mg/kg; MICE scMet ED50 PI (mice [5]; listed as 3*): >130 mg/kg |
| NC(=O)CNC1CCc2ccc(F)cc21 (racemic) [Compound 5, (rac)-6-Fluoro-N-(2-acetamido)-1-aminoindan.HCl] | >300 mg/kg | – | <100 mg/kg | – | >200 mg/kg | – | MICE TD50 (mice [1]; listed as 5*): 138 mg/kg; activity in the MES model in mice, in words (mice [3]): showed activity; MICE MES ED50 (mice [3]; listed as 5*): 58 mg/kg |
| C[C@H]1Cc2ccccc2[C@H]1N (racemic) [Compound 40, (rac)-cis-2-Methyl-1-aminoindan.HCl] | <100 mg/kg | <50 mg/kg | <100 mg/kg | >50 mg/kg | – | – | PROTECTION % OF RESPECTIVE CONTROL (male ICR albino mice; 50 mg/kg ip one hour prior to hypoxia): 374 ± 190%; PROTECTION % OF RESPECTIVE CONTROL (male ICR albino mice; 100 mg/kg ip one hour prior to hypoxia): 569 ± 173% |
| N[C@H]1CCc2ccccc21 [C, (S)-1-aminoindan] | – | – | – | – | – | 50.0% | PERCENT PROTECTION (mongolian gerbils; 0.1 mg/kg ip): 0% |
| NC(=O)CN[C@@H]1CCc2ccccc21 [Compound 1, (R)-N-(2-Acetamido)-1-aminoindan.HCl] | 198 mg/kg | 50 mg/kg | 77 mg/kg | >50 mg/kg | >200 mg/kg | – | – |
| CN[C@H]1CCc2ccccc21.Cl [Compound 14, (S)-N-Methyl-1-aminoindan.HCl] | 100 mg/kg | 94 mg/kg | <100 mg/kg | >142 mg/kg | – | – | RATS scMet ED50 PI (rats [6]): >71 mg/kg |
| CC(=O)N[C@H]1CCc2ccccc21 [Compound 19, (S)-N-Acetyl-1-aminoindan] | – | – | – | – | – | 0% | – |
| Cl.N[C@@H]1CCc2ccc(O)cc21 [Compound 35, (R)-6-Hydroxy-1-aminoindan.HCl] | – | – | – | – | – | 37.5% | PERCENT PROTECTION (mongolian gerbils; 0.1 mg/kg ip): 25.0%; PERCENT PROTECTION (mongolian gerbils; 10.0 mg/kg ip): 37.5%; SURVIVING CELL IN CULTURE ([7]; 0.005 μM + NMDA 1 mM 3 hours): 60%; PERCENT PROTECTION ([7]; 0.005 μM + NMDA): 30%; EFFECTIVE PROTECTION ([7]; 0.005 μM + NMDA): 43%; SURVIVING CELL IN CULTURE ([7]; 0.010 μM + NMDA 1 mM 3 hours): 34%; PERCENT PROTECTION ([7]; 0.010 μM + NMDA): 4%; EFFECTIVE PROTECTION ([7]; 0.010 μM + NMDA): 6%; SURVIVING CELL IN CULTURE ([7]; 0.100 μM + NMDA 1 mM 3 hours): 30%; PERCENT PROTECTION ([7]; 0.100 μM + NMDA): 0%; EFFECTIVE PROTECTION ([7]; 0.100 μM + NMDA): 0% |
| Cl.NC(=O)CN[C@@H]1CCc2ccccc21 [D, (R)-Indanylglycinamide-HCl salt] | – | – | 83 mg/kg | >180 mg/kg | >130 mg/kg | – | – |
